Source: publication PMC7955776 (Investigational new drugs, 2020)
Values joined by “and” are separate entries in the source; they are usually repeats but may differ in a detail not shown here. Equal entries are not always repeated.

Assays:
[1] = Phase I 3 + 3 dose escalation: DLT and MTD; conditions: human, in vivo
[2] = Safety: adverse events graded by CTCAE v4.0; assay type: in vivo, human; conditions: with paclitaxel and carboplatin

SMILES: CC(C)(C(=O)NCC(F)(F)C(F)(F)F)C(=O)N[C@@H]1C(=O)Nc2ccccc2-c2ccccc21 [RO4929097]
- DLTs observed, all dose levels [1]: 2
- SAE: depression ([2]; N = 1): 7%
- SAE: glucose intolerance ([2]; N = 1): 7%
- SAE: hyperglycemia ([2]; N = 1): 7%
- SAE: leukopenia ([2]; N = 1): 7%
- SAE: neutropenia ([2]; N = 1): 7%
- SAE: thrombocytopenia ([2]; N = 1): 7%
- SAE: wound dehiscence ([2]; N = 1): 7%
- SAE: wound infection ([2]; N = 1): 7%
- SAE: hypertension ([2]; N = 3): 21%
- Serious adverse events (SAEs) reported, number ([2]; duration of study): Eleven
- Alopecia, All Grades ([2]; treatment-related AE, N = 14): 9 (64) N (%)
- Alopecia, Grade 1 ([2]; treatment-related AE, N = 14): 3 (21) N (%)
- Alopecia, Grade 2 ([2]; treatment-related AE, N = 14): 6 (43) N (%)
- Alopecia, Grade 3 ([2]; treatment-related AE, N = 14): 0 (0) N (%)
- Alopecia, Grade 4 ([2]; treatment-related AE, N = 14): 0 (0) N (%)
- Anemia, All Grades ([2]; treatment-related AE, N = 14): 12 (86) N (%)
- Anemia, Grade 1 ([2]; treatment-related AE, N = 14): 0 (0) N (%)
- Anemia, Grade 2 ([2]; treatment-related AE, N = 14): 8 (57) N (%)
- Anemia, Grade 3 ([2]; treatment-related AE, N = 14): 4 (29%) N (%) and 4 (29) N (%)
- Anemia, Grade 4 ([2]; treatment-related AE, N = 14): 0 (0) N (%)
- Anorexia, All Grades ([2]; treatment-related AE, N = 14): 9 (64) N (%)
- Anorexia, Grade 1 ([2]; treatment-related AE, N = 14): 8 (57) N (%)
- Anorexia, Grade 2 ([2]; treatment-related AE, N = 14): 1 (7) N (%)
- Anorexia, Grade 3 ([2]; treatment-related AE, N = 14): 0 (0) N (%)
- Anorexia, Grade 4 ([2]; treatment-related AE, N = 14): 0 (0) N (%)
- Constipation, All Grades ([2]; treatment-related AE, N = 14): 10 (71) N (%)
- Constipation, Grade 1 ([2]; treatment-related AE, N = 14): 10 (71) N (%)
- Constipation, Grade 2 ([2]; treatment-related AE, N = 14): 0 (0) N (%)
- Constipation, Grade 3 ([2]; treatment-related AE, N = 14): 0 (0) N (%)
- Constipation, Grade 4 ([2]; treatment-related AE, N = 14): 0 (0) N (%)
- Dyspnea, All Grades ([2]; treatment-related AE, N = 14): 10 (71) N (%)
- Dyspnea, Grade 1 ([2]; treatment-related AE, N = 14): 7 (50) N (%)
- Dyspnea, Grade 2 ([2]; treatment-related AE, N = 14): 3 (21) N (%)
- Dyspnea, Grade 3 ([2]; treatment-related AE, N = 14): 0 (0) N (%)
- Dyspnea, Grade 4 ([2]; treatment-related AE, N = 14): 0 (0) N (%)
- Elevated aspartate aminotransferase, All Grades ([2]; treatment-related AE, N = 14): 6 (43) N (%)
- Elevated aspartate aminotransferase, Grade 1 ([2]; treatment-related AE, N = 14): 6 (43) N (%)
- Elevated aspartate aminotransferase, Grade 2 ([2]; treatment-related AE, N = 14): 0 (0) N (%)
- Elevated aspartate aminotransferase, Grade 3 ([2]; treatment-related AE, N = 14): 0 (0) N (%)
- Elevated aspartate aminotransferase, Grade 4 ([2]; treatment-related AE, N = 14): 0 (0) N (%)
- Epistaxis, All Grades ([2]; treatment-related AE, N = 14): 8 (57) N (%)
- Epistaxis, Grade 1 ([2]; treatment-related AE, N = 14): 7 (50) N (%)
- Epistaxis, Grade 2 ([2]; treatment-related AE, N = 14): 1 (7) N (%)
- Epistaxis, Grade 3 ([2]; treatment-related AE, N = 14): 0 (0) N (%)
- Epistaxis, Grade 4 ([2]; treatment-related AE, N = 14): 0 (0) N (%)
- Fatigue, All Grades ([2]; treatment-related AE, N = 14): 11 (79) N (%)
- Fatigue, Grade 1 ([2]; treatment-related AE, N = 14): 5 (36) N (%)
- Fatigue, Grade 2 ([2]; treatment-related AE, N = 14): 5 (36) N (%)
- Fatigue, Grade 3 ([2]; treatment-related AE, N = 14): 1 (7%) N (%) and 1 (7) N (%)
- Fatigue, Grade 4 ([2]; treatment-related AE, N = 14): 0 (0) N (%)
- Headache, All Grades ([2]; treatment-related AE, N = 14): 9 (64) N (%)
- Headache, Grade 1 ([2]; treatment-related AE, N = 14): 8 (57) N (%)
- Headache, Grade 2 ([2]; treatment-related AE, N = 14): 1 (7) N (%)
- Headache, Grade 3 ([2]; treatment-related AE, N = 14): 0 (0) N (%)
- Headache, Grade 4 ([2]; treatment-related AE, N = 14): 0 (0) N (%)
- Hyperglycemia, All Grades ([2]; treatment-related AE, N = 14): 7 (50) N (%)
- Hyperglycemia, Grade 1 ([2]; treatment-related AE, N = 14): 7 (50) N (%)
- Hyperglycemia, Grade 2 ([2]; treatment-related AE, N = 14): 0 (0) N (%)
- Hyperglycemia, Grade 3 ([2]; treatment-related AE, N = 14): 0 (0) N (%)
- Hyperglycemia, Grade 4 ([2]; treatment-related AE, N = 14): 0 (0) N (%)
- Hypertension, All Grades ([2]; treatment-related AE, N = 14): 8 (57) N (%)
- Hypertension, Grade 1 ([2]; treatment-related AE, N = 14): 4 (29) N (%)
- Hypertension, Grade 2 ([2]; treatment-related AE, N = 14): 3 (21) N (%)
- Hypertension, Grade 3 ([2]; treatment-related AE, N = 14): 1 (7%) N (%) and 1 (7) N (%)
- Hypertension, Grade 4 ([2]; treatment-related AE, N = 14): 0 (0) N (%)
- Leukopenia, All Grades ([2]; treatment-related AE, N = 14): 13 (93) N (%)
- Leukopenia, Grade 1 ([2]; treatment-related AE, N = 14): 1 (7) N (%)
- Leukopenia, Grade 2 ([2]; treatment-related AE, N = 14): 7 (50) N (%)
- Leukopenia, Grade 3 ([2]; treatment-related AE, N = 14): 5 (36) N (%)
- Leukopenia, Grade 4 ([2]; treatment-related AE, N = 14): 0 (0) N (%)
